# Patent US20090131470A1, “PYRAZOLE-SUBSTITUTED BENZIMIDAZOLE DERIVATIVES FOR USE IN THE TREATMENT OF CANCER AND AUTOIMMUNE DISORDERS” (priority 2005, published 2009)
# Key:
# Format in all cases: biochemical
# PKA = molecular target: T1, PKA (Homo sapiens, UniProt P17612); assay: PKA kinase assay (Kemptide substrate); conditions: 100 μM ATP
# T1 construct: purchased Upstate
# Protocol: (§1) The assay mixture containing the inhibitor and CDK-2 enzyme, complexed with cyclin A (0.4 U/ml) was mixed together in a microtiter plate in a final volume of 50 μl and incubated for 40 min at 30° C. The assay mixture contained 0.1 mM unlabeled ATP, 0.01 μCi/μl ^33P-γ-ATP, 0.03 mM peptide, 0.1 mg/ml BSA, 7.5 mM magnesium acetate, 50 mM HEPES-NaOH, pH 7.5. The reaction was stopped by adding 50 μl of 50 mM phosphoric acid. 90 μl of the mixture were transferred to a pre-wetted 96-well Multiscreen MAPHNOB filtration plate (Millipore) and filtered on a vacuum manifold. The filter plate was washed with 3 successive additions of 200 μl 50 mM phosphoric acid and then with 100 μl methanol. The filtration plate was dried for 10 min at 65° C., scintillant added and phosphorylated peptide quantified in a scintillation counter (Trilux, PerkinElmer)
# The PKA assay was incubated at 30° C. for 30 minutes.
# Akt1 = molecular target: T2, Akt1 (Homo sapiens, UniProt P31749); assay: Akt1 kinase assay (Histone H1 substrate); conditions: 200 μM ATP, read-out: AKT-1 IC50
# T2 construct: purchased Upstate
# Protocol: Assays for the cyclin dependent kinase activity were carried out by monitoring the phosphorylation of a synthetic peptide, HATTPKKKRK. The assay mixture containing the inhibitor and CDK-2 enzyme, complexed with cyclin A (0.4 U/ml) was mixed together in a microtiter plate in a final volume of 50 μl and incubated for 40 min at 30° C. The assay mixture contained 0.1 mM unlabeled ATP, 0.01 μCi/μl ^33P-γ-ATP, 0.03 mM peptide, 0.1 mg/ml BSA, 7.5 mM magnesium acetate, 50 mM HEPES-NaOH, pH 7.5. The reaction was stopped by adding 50 μl of 50 mM phosphoric acid. 90 μl of the mixture were transferred to a pre-wetted 96-well Multiscreen MAPHNOB filtration plate (Millipore) and filtered on a vacuum manifold. The filter plate was washed with 3 successive additions of 200 μl 50 mM phosphoric acid and then with 100 μl methanol. The filtration plate was dried for 10 min at 65° C., scintillant added and phosphorylated peptide quantified in a scintillation counter (Trilux, PerkinElmer)
# Protocol for the Akt assay is the same for CDK2 except that, 3 nM Akt1 (Upstate) was used with Histone H1 as substrate with a final ATP concentration of 200 μM. The reaction was incubated at 30° C. for 40 minutes.
# PDK1 = molecular target: T3, PDK1 (Homo sapiens, UniProt O15530); assay: PDK1 kinase assay (33P peptide phosphorylation); conditions: 0.01 mM ATP, 60 min at 30° C.; read-out: PDK-1 IC50
# T3 sequence (O15530 1-556): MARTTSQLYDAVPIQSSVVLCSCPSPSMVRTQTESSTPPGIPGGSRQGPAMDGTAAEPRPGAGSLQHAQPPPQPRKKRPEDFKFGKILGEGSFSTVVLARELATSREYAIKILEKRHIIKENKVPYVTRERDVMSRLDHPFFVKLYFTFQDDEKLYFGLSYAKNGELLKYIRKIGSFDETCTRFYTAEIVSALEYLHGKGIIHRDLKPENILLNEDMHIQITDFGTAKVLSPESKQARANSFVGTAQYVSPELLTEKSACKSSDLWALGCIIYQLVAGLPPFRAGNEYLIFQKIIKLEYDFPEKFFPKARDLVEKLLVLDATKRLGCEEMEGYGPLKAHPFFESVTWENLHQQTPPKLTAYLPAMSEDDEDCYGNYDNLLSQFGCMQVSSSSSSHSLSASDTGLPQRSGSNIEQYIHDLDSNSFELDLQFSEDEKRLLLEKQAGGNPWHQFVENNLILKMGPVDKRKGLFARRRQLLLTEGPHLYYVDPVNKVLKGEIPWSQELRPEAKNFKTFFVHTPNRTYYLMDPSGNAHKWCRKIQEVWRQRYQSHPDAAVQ
# Protocol: as §1, with “and PDK1 enzyme” for “and CDK-2 enzyme, complexed with cyclin A (0.4 U/ml)”, “for 60” for “for 40”, “contained 0.01” for “contained 0.1”, “^33P-γ-ATP, 0.075” for “^33P-γ-ATP, 0.03”, “acetate, 0.05M Tris.HCl,” for “acetate, 50 mM HEPES-NaOH,”, “pH 7.5, 0.5% 2-mercaptoethanol.” for “pH 7.5.”
# [1] = molecular target: CDK-2 enzyme, complexed with cyclin A (Homo sapiens, UniProt P24941); assay: CDK2 kinase assay (33P peptide phosphorylation); conditions: 0.1 mM ATP, cyclin A complex
# Protocol: as §1
# GST-Chk1 enzyme = molecular target: T4, GST-Chk1 enzyme (Homo sapiens, UniProt O14757); assay: Chk1 kinase assay (33P Chktide phosphorylation); conditions: 0.01 mM ATP, 40 minutes at 30° C.; read-out: CHK-1 IC50
# T4 sequence (O14757 1-476): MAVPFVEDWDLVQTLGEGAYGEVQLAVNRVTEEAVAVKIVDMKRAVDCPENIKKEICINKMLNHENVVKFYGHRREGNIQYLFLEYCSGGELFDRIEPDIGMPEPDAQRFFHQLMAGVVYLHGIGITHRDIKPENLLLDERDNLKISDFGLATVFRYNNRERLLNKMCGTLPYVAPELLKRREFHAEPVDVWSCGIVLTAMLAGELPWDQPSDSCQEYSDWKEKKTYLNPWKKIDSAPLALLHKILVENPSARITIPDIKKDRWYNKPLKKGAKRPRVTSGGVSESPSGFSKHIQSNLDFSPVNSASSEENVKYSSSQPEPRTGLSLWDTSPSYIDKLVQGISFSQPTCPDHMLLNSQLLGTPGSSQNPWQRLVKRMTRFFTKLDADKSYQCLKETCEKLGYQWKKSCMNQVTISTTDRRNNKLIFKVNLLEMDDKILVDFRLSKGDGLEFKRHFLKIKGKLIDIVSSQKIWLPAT
# Protocol: as §1, with “and Chk1 enzyme” for “and CDK-2 enzyme, complexed with cyclin A (0.4 U/ml)”, “40 minutes” for “40 min”, “C. […]” for “C. The assay mixture contained 0.1 mM unlabeled ATP, 0.01 μCi/μl ^33P-γ-ATP, 0.03 mM peptide, 0.1 mg/ml BSA, 7.5 mM magnesium acetate, 50 mM HEPES-NaOH, pH 7.5.”, “mixture was” for “mixture were”, “96-well multi-screen” for “96-well Multiscreen”
# T2 sequence (P31749 whole entry, species assumed): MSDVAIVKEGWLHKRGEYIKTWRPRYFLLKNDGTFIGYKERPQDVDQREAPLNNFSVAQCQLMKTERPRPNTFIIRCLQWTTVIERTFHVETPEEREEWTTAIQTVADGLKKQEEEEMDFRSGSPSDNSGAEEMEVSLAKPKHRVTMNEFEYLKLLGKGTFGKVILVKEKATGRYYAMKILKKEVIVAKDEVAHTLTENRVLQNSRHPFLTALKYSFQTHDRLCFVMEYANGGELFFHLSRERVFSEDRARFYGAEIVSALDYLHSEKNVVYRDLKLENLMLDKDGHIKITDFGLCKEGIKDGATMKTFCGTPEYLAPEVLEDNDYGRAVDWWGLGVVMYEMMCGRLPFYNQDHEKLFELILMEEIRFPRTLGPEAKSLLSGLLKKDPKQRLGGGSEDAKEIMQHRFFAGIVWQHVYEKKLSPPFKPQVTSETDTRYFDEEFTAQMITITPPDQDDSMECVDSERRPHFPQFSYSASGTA
SMILES,IC50 (PKA) [µM],IC50 (Akt1) [µM],IC50 (PDK1) [nM],IC50 [1] [µM],IC50 (GST-Chk1 enzyme) [nM]
Cc1[nH]nc(-c2nc3ccc(NC(=O)CC(C)C)cc3[nH]2)c1C(=O)NC1CCN(C)CC1 [Example 33],13.1,47.5,95,21.3,3
Cc1[nH]nc(-c2nc3cc(F)c(NC(=O)C4CC4)cc3[nH]2)c1C(=O)NC1CCN(C)CC1 [Example 34],28.4,44.1,216,20.6,13
Cc1[nH]nc(-c2nc3ccc(C(=O)NCC(O)c4ccccc4)cc3[nH]2)c1C(=O)NC1CCNCC1 (stereo not drawn) [Example 35],5.31,10.6,57,13.8,37
Cc1[nH]nc(-c2nc3ccc(C(C)(C)C)cc3[nH]2)c1C(=O)NC1CCNCC1 [Example 37],4.95,> 10,49,1.85,6
Cc1[nH]nc(-c2nc3ccc(C(F)(F)F)cc3[nH]2)c1C(=O)NC1CCNCC1 [Example 38],16.9,> 10,32,19.3,58
Cc1[nH]nc(-c2nc3ccc(C(F)(F)F)cc3[nH]2)c1C(=O)NCC1CCCNC1 (stereo not drawn) [Example 39],> 50,> 10,86,> 50,49
Cc1[nH]nc(-c2nc3ccc(C4CC4)cc3[nH]2)c1C(=O)NC1CCNCC1 [Example 40],2.86,> 10,20,23.7,22
Cc1[nH]nc(-c2nc3ccc(C(C)(C)C)cc3[nH]2)c1C(=O)N[C@@H]1CN2CCC1CC2 [Example 41],2.12,> 10,52,> 50,25
Cc1[nH]nc(-c2nc3ccc(C(C)C)cc3[nH]2)c1C(=O)NC1CN2CCC1CC2 (stereo not drawn) [Example 42],3.82,> 10,45,9.67,50
Cc1[nH]nc(-c2nc3ccc(C(C)C)cc3[nH]2)c1C(=O)N[C@@H]1CN2CCC1CC2 [Example 43],2.02,> 10,22,14.7,26
Cc1[nH]nc(-c2nc3cc(Cl)c(C(C)C)cc3[nH]2)c1C(=O)NC1CN2CCC1CC2 (stereo not drawn) [Example 44],12,> 10,140,> 50,91
Cc1[nH]nc(-c2nc3cc(Cl)c(C(C)C)cc3[nH]2)c1C(=O)NC1CCNCC1 [Example 45],5.13,> 10,13,11.9,13
